Reference: PubChem BioAssay (NCI)
Where “and” joins values, the source holds several entries; their conditions need not be identical. Equal entries are not always repeated.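 Compound exposure: 48 hours, 5 concentrations, 96-well plates. Here, GI50 denotes the concentration required for 50% inhibition of growth. TGI: concentration producing complete growth inhibition.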

Key:
Assay in all cases: NCI tumour cell line growth inhibition, 48 h
SK-MEL-2 melanoma = system: SK-MEL-2 melanoma
OVCAR-4 ovarian = system: OVCAR-4 ovarian
K-562 leukemia = system: K-562 leukemia
HL-60(TB) leukemia = system: HL-60(TB) leukemia
NCI-H460 lung = system: NCI-H460 lung
M14 melanoma = system: M14 melanoma
KM12 colon = system: KM12 colon
NCI-H522 lung = system: NCI-H522 lung
NCI-H23 lung = system: NCI-H23 lung
OVCAR-3 ovarian = system: OVCAR-3 ovarian

COc1ccc2c(c1OC(C)=O)C1=CC(=O)CCC13CCNC3C2 (configuration not stated)
TGI (SK-MEL-2 melanoma): > 100 µM | TGI (OVCAR-4 ovarian): > 100 µM | TGI (K-562 leukemia): > 100 µM | TGI (HL-60(TB) leukemia): > 100 µM | TGI (NCI-H460 lung): > 100 µM | TGI (M14 melanoma): > 100 µM | TGI (KM12 colon): > 100 µM | TGI (NCI-H522 lung): > 100 µM | TGI (NCI-H23 lung): > 100 µM | TGI (OVCAR-3 ovarian): > 100 µM

CN(C)CCOC(=O)Nc1nc2ccc(Sc3ccccc3)cc2[nH]1
GI50 (SK-MEL-2 melanoma): 5.55 µM | TGI (SK-MEL-2 melanoma): 22.2 µM | GI50 (OVCAR-4 ovarian): 6300 nM | TGI (OVCAR-4 ovarian): > 100 µM | GI50 (K-562 leukemia): 613 nM | TGI (K-562 leukemia): 13.7 µM | GI50 (HL-60(TB) leukemia): 3240 nM | TGI (HL-60(TB) leukemia): 8.59 µM | GI50 (NCI-H460 lung): 3.69 µM | TGI (NCI-H460 lung): 13.7 µM | GI50 (M14 melanoma): 2280 nM | TGI (M14 melanoma): 9.29 µM | GI50 (KM12 colon): 3510 nM | TGI (KM12 colon): 19.7 µM | GI50 (NCI-H522 lung): 2580 nM | TGI (NCI-H522 lung): 10.8 µM | GI50 (NCI-H23 lung): 4.08 µM | TGI (NCI-H23 lung): 19.5 µM | GI50 (OVCAR-3 ovarian): 2660 nM | TGI (OVCAR-3 ovarian): 9.06 µM

CN(C)c1ccc(N=C2C=CC(=O)c3ccccc32)cc1
GI50 (SK-MEL-2 melanoma): 3.5 µM | TGI (SK-MEL-2 melanoma): 11 µM | GI50 (OVCAR-4 ovarian): 2020 nM | TGI (OVCAR-4 ovarian): 10.4 µM | GI50 (K-562 leukemia): 2000 nM | TGI (K-562 leukemia): 4.75 µM | GI50 (HL-60(TB) leukemia): 2150 nM | TGI (HL-60(TB) leukemia): 4.52 µM | GI50 (NCI-H460 lung): 1.98 µM | TGI (NCI-H460 lung): 4.86 µM | GI50 (M14 melanoma): 1790 nM | TGI (M14 melanoma): 3.61 µM | GI50 (KM12 colon): 2690 nM | TGI (KM12 colon): 10.2 µM | GI50 (NCI-H522 lung): 1970 nM | TGI (NCI-H522 lung): 4.51 µM | GI50 (NCI-H23 lung): 2.41 µM | TGI (NCI-H23 lung): 8.04 µM | GI50 (OVCAR-3 ovarian): 1280 nM | TGI (OVCAR-3 ovarian): 3.08 µM

Cc1ccc(S(=O)(=O)N2CCc3ccc(O)c4c3C2Cc2ccc3c(c2-4)OCO3)cc1 (configuration not stated)
GI50 (SK-MEL-2 melanoma): 1.34 µM | TGI (SK-MEL-2 melanoma): 7.33 µM | GI50 (OVCAR-4 ovarian): 934 nM | TGI (OVCAR-4 ovarian): 33.3 µM | GI50 (K-562 leukemia): 455 nM | TGI (K-562 leukemia): > 100 µM | GI50 (HL-60(TB) leukemia): 398 nM | TGI (HL-60(TB) leukemia): 5.56 µM | GI50 (NCI-H460 lung): 0.539 µM | TGI (NCI-H460 lung): 7.53 µM | GI50 (M14 melanoma): 511 nM | TGI (M14 melanoma): 3.86 µM | GI50 (KM12 colon): 456 nM | TGI (KM12 colon): 3.66 µM | GI50 (NCI-H522 lung): 393 nM | TGI (NCI-H522 lung): 2.08 µM | GI50 (NCI-H23 lung): 0.592 µM | TGI (NCI-H23 lung): 5.25 µM | GI50 (OVCAR-3 ovarian): 286 nM | TGI (OVCAR-3 ovarian): 0.707 µM

O=C(O)Cc1cccc2c(=O)c3cccc([N+](=O)[O-])c3oc12
TGI (SK-MEL-2 melanoma): > 100 µM | TGI (OVCAR-4 ovarian): > 100 µM | TGI (K-562 leukemia): > 100 µM | TGI (HL-60(TB) leukemia): > 100 µM | TGI (NCI-H460 lung): > 100 µM | TGI (M14 melanoma): > 100 µM | TGI (KM12 colon): > 100 µM | TGI (NCI-H522 lung): > 100 µM | TGI (NCI-H23 lung): > 100 µM | TGI (OVCAR-3 ovarian): > 100 µM

Cc1ccc(OCC2OC(n3cnc4c(Br)nc(Br)nc43)CC2Oc2ccc(C)cc2)cc1 (configuration not stated)
GI50 (SK-MEL-2 melanoma): 14.1 µM | TGI (SK-MEL-2 melanoma): 28.3 µM and 8.15 µM | GI50 (OVCAR-4 ovarian): 1560 nM | TGI (OVCAR-4 ovarian): 4.84 µM and 7.55 µM | GI50 (K-562 leukemia): 1940 nM | TGI (K-562 leukemia): 3.92 µM and > 23.8 µM | TGI (HL-60(TB) leukemia): 21.8 µM | GI50 (NCI-H460 lung): 1.86 µM and 10.7 µM | TGI (NCI-H460 lung): 6.07 µM and 28 µM | TGI (M14 melanoma): 10.6 µM and 7.47 µM | GI50 (KM12 colon): 2460 nM | TGI (KM12 colon): 8.76 µM and 9.56 µM | GI50 (NCI-H522 lung): 1650 nM | TGI (NCI-H522 lung): 2.8 µM and 3.27 µM | GI50 (NCI-H23 lung): 6.1 µM | TGI (NCI-H23 lung): 16.7 µM and 15.4 µM | GI50 (OVCAR-3 ovarian): 3770 nM | TGI (OVCAR-3 ovarian): 14.3 µM and 19.1 µM

Nc1ccc(Sc2c3ccccc3nc3ccccc23)cc1
TGI (SK-MEL-2 melanoma): 34.1 µM | TGI (OVCAR-4 ovarian): 29.4 µM | TGI (K-562 leukemia): 22.6 µM | TGI (HL-60(TB) leukemia): 10.7 µM | TGI (NCI-H460 lung): 49.5 µM | TGI (M14 melanoma): 30.1 µM | TGI (KM12 colon): 40.4 µM | TGI (NCI-H522 lung): 16 µM | TGI (NCI-H23 lung): 36.7 µM | TGI (OVCAR-3 ovarian): 29.2 µM

Cc1cc(=O)oc2cc(OC/C=C3\CCC(=O)O3)ccc12
GI50 (SK-MEL-2 melanoma): 17.9 µM | TGI (SK-MEL-2 melanoma): 60.2 µM | GI50 (OVCAR-4 ovarian): 15800 nM | TGI (OVCAR-4 ovarian): 37.4 µM | TGI (K-562 leukemia): 7.84 µM | GI50 (HL-60(TB) leukemia): 4470 nM | TGI (HL-60(TB) leukemia): 32.2 µM | GI50 (NCI-H460 lung): 19.3 µM | TGI (NCI-H460 lung): > 62.7 µM | GI50 (M14 melanoma): 9510 nM | TGI (M14 melanoma): 25 µM | GI50 (KM12 colon): 18000 nM | TGI (KM12 colon): 47.9 µM | GI50 (NCI-H522 lung): 7820 nM | TGI (NCI-H522 lung): 23 µM | GI50 (NCI-H23 lung): 14.4 µM | TGI (NCI-H23 lung): 29.9 µM | GI50 (OVCAR-3 ovarian): 12200 nM | TGI (OVCAR-3 ovarian): 28.8 µM

C=CCN(N=O)C(=O)NCCCCC(NC(C)=O)C(=O)NCc1ccccc1 (configuration not stated)
TGI (SK-MEL-2 melanoma): > 100 µM | TGI (OVCAR-4 ovarian): > 100 µM | TGI (K-562 leukemia): > 100 µM | TGI (HL-60(TB) leukemia): > 100 µM | TGI (NCI-H460 lung): > 100 µM | TGI (M14 melanoma): > 100 µM | TGI (KM12 colon): > 100 µM | TGI (NCI-H522 lung): > 100 µM | TGI (NCI-H23 lung): > 100 µM | TGI (OVCAR-3 ovarian): > 100 µM

COC1=CC(=O)c2nc(Cl)ccc2C1=O
GI50 (SK-MEL-2 melanoma): 2.07 µM | TGI (SK-MEL-2 melanoma): 3.98 µM | GI50 (OVCAR-4 ovarian): 1500 nM | TGI (OVCAR-4 ovarian): 2.83 µM | GI50 (K-562 leukemia): 2980 nM | TGI (K-562 leukemia): > 100 µM | GI50 (HL-60(TB) leukemia): 2010 nM | TGI (HL-60(TB) leukemia): 7.61 µM | GI50 (NCI-H460 lung): 14 µM | TGI (NCI-H460 lung): 29.3 µM | GI50 (M14 melanoma): 1920 nM | TGI (M14 melanoma): 3.52 µM | GI50 (KM12 colon): 2110 nM | TGI (KM12 colon): 4.82 µM | GI50 (NCI-H522 lung): 1700 nM | TGI (NCI-H522 lung): 3.57 µM | GI50 (NCI-H23 lung): 1.59 µM | TGI (NCI-H23 lung): 3.33 µM | GI50 (OVCAR-3 ovarian): 1790 nM | TGI (OVCAR-3 ovarian): 3.19 µM

[CH3][Sn]([CH3])([CH3])[O][N+](=O)[O-]
GI50 (SK-MEL-2 melanoma): 5.1 µM | TGI (SK-MEL-2 melanoma): > 10 µM | GI50 (OVCAR-4 ovarian): 2660 nM | TGI (OVCAR-4 ovarian): 5.53 µM | GI50 (K-562 leukemia): 2630 nM | TGI (K-562 leukemia): 7.39 µM | GI50 (HL-60(TB) leukemia): 4030 nM | TGI (HL-60(TB) leukemia): > 10 µM | GI50 (NCI-H460 lung): 8.25 µM | TGI (NCI-H460 lung): > 10 µM | GI50 (M14 melanoma): 6330 nM | TGI (M14 melanoma): > 10 µM | GI50 (KM12 colon): > 10000 nM | TGI (KM12 colon): > 10 µM | GI50 (NCI-H522 lung): 1640 nM | TGI (NCI-H522 lung): 3.07 µM | GI50 (NCI-H23 lung): 5.02 µM | TGI (NCI-H23 lung): > 10 µM | GI50 (OVCAR-3 ovarian): 5060 nM | TGI (OVCAR-3 ovarian): > 10 µM

COc1cc(/C=C2/C(=O)N(C(=O)OCc3ccccc3)C(Cc3cc(OC)c(OC)c(C)c3OC)C(=O)N2Cc2ccccc2)c(OC)c(C)c1OC (configuration not stated)
TGI (SK-MEL-2 melanoma): > 100 µM | TGI (OVCAR-4 ovarian): > 100 µM | TGI (K-562 leukemia): > 100 µM | TGI (HL-60(TB) leukemia): > 100 µM | TGI (NCI-H460 lung): > 100 µM | TGI (M14 melanoma): > 100 µM | TGI (KM12 colon): > 100 µM | TGI (NCI-H522 lung): > 100 µM | TGI (NCI-H23 lung): > 100 µM | TGI (OVCAR-3 ovarian): > 100 µM

C/C(=N/Nc1nc(C)cc(=O)[nH]1)C(=O)O
TGI (SK-MEL-2 melanoma): > 100 µM | TGI (OVCAR-4 ovarian): > 100 µM | TGI (K-562 leukemia): > 100 µM | TGI (HL-60(TB) leukemia): > 100 µM | TGI (NCI-H460 lung): > 100 µM | TGI (M14 melanoma): > 100 µM | TGI (KM12 colon): > 100 µM | TGI (NCI-H522 lung): > 100 µM | TGI (NCI-H23 lung): > 100 µM | TGI (OVCAR-3 ovarian): > 100 µM

CCN=C(C#N)NCC
TGI (SK-MEL-2 melanoma): > 100 µM | TGI (OVCAR-4 ovarian): > 100 µM | TGI (K-562 leukemia): > 100 µM | TGI (HL-60(TB) leukemia): > 100 µM | TGI (NCI-H460 lung): > 100 µM | TGI (M14 melanoma): > 100 µM | TGI (KM12 colon): > 100 µM | TGI (NCI-H522 lung): > 100 µM | TGI (NCI-H23 lung): > 100 µM | TGI (OVCAR-3 ovarian): > 100 µM
